Laboratory results as given in ChEMBL document CHEMBL4418497, “Compositions and methods relating to inhibiting serine hyrdoxymethyltransferase 2 activity” (2016).
pIC50: −log10 of the molar value.

Target: T1, Serine hydroxymethyltransferase, mitochondrial (Homo sapiens, UniProt P34897)
T1 sequence (P34897 whole entry): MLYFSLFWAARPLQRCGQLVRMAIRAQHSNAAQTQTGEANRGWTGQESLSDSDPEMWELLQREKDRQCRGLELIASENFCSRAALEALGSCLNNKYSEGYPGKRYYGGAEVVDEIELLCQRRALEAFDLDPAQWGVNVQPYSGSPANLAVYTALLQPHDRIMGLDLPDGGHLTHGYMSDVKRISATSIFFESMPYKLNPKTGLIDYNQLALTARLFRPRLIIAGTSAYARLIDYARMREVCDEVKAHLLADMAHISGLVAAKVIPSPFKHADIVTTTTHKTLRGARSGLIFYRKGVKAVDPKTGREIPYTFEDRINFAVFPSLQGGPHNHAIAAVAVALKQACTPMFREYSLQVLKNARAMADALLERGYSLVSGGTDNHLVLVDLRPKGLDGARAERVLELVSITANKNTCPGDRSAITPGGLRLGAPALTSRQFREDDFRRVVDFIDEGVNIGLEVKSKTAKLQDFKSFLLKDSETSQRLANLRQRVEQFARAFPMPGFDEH
Assay: Inhibition of His-tagged human recombinant SHMT2 expressed in Escherichia coli BLR(DE3) assessed as reduction in NADPH level using L-serine, THF and NADP+ incubated for 5 mins by SHMT2-MTHFD coupled reaction based fluorescence assay
Settings: read-out: IC50

| SMILES | pIC50 |
| --- | --- |
| CC(C)Cn1cc(NC(=O)NCCc2ccsc2)c2ccccc2c1=O | 5.78 |
| CN1CCN(CCCNC(=O)c2ccc(N3CCSc4ncccc43)s2)CC1 | 5.42 |
| COc1cc(OC)c(NC(=O)N2CCN3CCCCC3C2)cc1Cl (stereo not drawn) | 5.57 |
| COc1ccc(Nc2nnc(-n3nc(C)cc3C)c3ccccc23)cc1OC | 5.08 |
| Cn1cnc2cc(NCc3ccco3)ccc21 | 5.69 |
| CC(C)Cn1cc(NC(=O)Nc2ccc(N3CCC(C)CC3)cc2)c2ccccc2c1=O | 5.05 |
| CC(C)Cn1cc(NC(=O)Nc2ccc(Cl)cn2)c2ccccc2c1=O | 5.42 |
| CC(C)Cn1cc(NC(=O)Nc2cccc(F)c2)c2ccccc2c1=O | 5.65 |
| COC(=O)Cn1cc2c(n1)-c1c(oc(C(=O)N3CCCC3)c1C)CC2 | 5.22 |
| CCCCN1CCS(=O)(=O)c2c(Cl)c(N3CCOCC3)nc(Oc3ccc(F)cc3)c21 | 5.34 |
| Cn1cc(NC(=O)NCC2CCCO2)c2ccccc2c1=O (stereo not drawn) | 5.35 |
| COc1cc(OC)c(NC(=O)NCCC2=CSC3CC(C)CCC23)cc1Cl (stereo not drawn) | 5.15 |
| COc1ccc(OC)c(CNC(=O)Nc2cn(C)c(=O)c3ccccc23)c1 | 5.59 |
| CC(C)Cn1cc(NC(=O)NC2CC2)c2ccccc2c1=O | 5.06 |
| O=C(Nc1cccc2c1CCCC2)N1CCSc2ncccc21 | 5.63 |
| COc1cc(NC2=C(c3ccccc3)C(=O)c3ccccc32)cc(OC)c1 | 4.94 |
| Cc1c(C(=O)NCCCN2CCOCC2)oc2c1-c1[nH]ncc1CC2 | 5.38 |
| Cn1cc(NC(=O)N2CCCCC2)c2ccccc2c1=O | 5.03 |
| O=C(CSc1nc2ncccc2o1)Nc1ccc(Br)cc1F | 5.74 |
| COc1ccc(Nc2nc(Nc3ccccc3)c3cnn(C)c3n2)c(OC)c1 | 5.48 |
| CCCNC(=O)Nc1cn(CC(C)C)c(=O)c2ccccc12 | 5.67 |
| Cc1csc(NC(=O)Nc2cn(CC(C)C)c(=O)c3ccccc23)n1 | 5.46 |

| SMILES | pIC50 |
| --- | --- |
| CC(C)CCNC(=O)CSc1nc2ncccc2o1 | 5.60 |
| CC(C)Cn1cc(NC(=O)NC2CCCCC2)c2ccccc2c1=O | 5.76 |
| CC(C)Cn1cc(NC(=O)NCCN2CCCCC2)c2ccccc2c1=O | 5.76 |
| CCCCC(=O)Nc1cc(F)c2nc(N3CCOCC3)ccc2c1 | 5.80 |
| C=CCn1c(=O)sc2cc(NC(=O)Cc3ccc(F)cc3)ccc21 | 4.99 |
| Cc1nn(C)c(C)c1CNC(=O)Nc1ccc2c(c1)OCCO2 | 5.39 |
| Cc1c(C(=O)NCc2ccco2)oc2c1-c1[nH]ncc1CC2 | 5.16 |
| CCC1=NN(c2ccccc2)C(=O)C1 | 5.07 |
| COc1cc(OC)c(NC(=O)N2CCC3(CC2)Nc2cc(F)ccc2-n2cccc23)cc1Cl | 5.38 |
| CCC1c2ccc(C)n2CCN1C(=O)Nc1cc(OC)cc(OC)c1 (stereo not drawn) | 5.10 |
| O=C(Nc1cc(F)c2nc(N3CCCC3)ccc2c1)C1CCCCC1 | 5.59 |
| CCC(=O)Nc1cc(F)c2nc(N3CCOCC3)ccc2c1 | 5.81 |
| CCc1nnc2c3ccccc3nc(Nc3ccc(OC)c(OC)c3)n12 | 4.91 |
| CC(=O)Nc1ccc2nc(SCc3cc(=O)n4nc(C)sc4n3)sc2c1 | 5.51 |
| COc1ccc2nc(NC(=O)Nc3cn(CC(C)C)c(=O)c4ccccc34)sc2c1 | 5.69 |
| O=C(Nc1cc(F)c2nc(N3CCOCC3)ccc2c1)c1ccco1 | 5.45 |
| COc1cc(OC)c(N(C)C(=O)Nc2cn(C)c(=O)c3ccccc23)cc1Cl | 5.43 |
| CC(C)NC(=O)N1CCC2(CC1)Nc1cc(F)ccc1-n1cccc12 | 5.01 |
| COc1cc(NC(=O)C2=Cc3sc(C)c(C)c3CS2)cc(OC)c1 | 5.17 |
| Cc1ccc2oc(SCC(=O)Nc3cccc(N4CCCC4=O)c3)nc2n1 | 5.35 |
| O=C(Cc1cccs1)Nc1cc(F)c2nc(N3CCOCC3)ccc2c1 | 5.32 |
| O=C(Nc1ccc2c(c1)OCCO2)N1CCc2c([nH]c3ccccc23)C1c1ccccc1F (stereo not drawn) | 5.32 |

| SMILES | pIC50 |
| --- | --- |
| Cc1c(C(=O)NCc2cccs2)oc2c1-c1[nH]ncc1CC2 | 5.10 |
| Cc1cc(NC(=O)N2CCSc3ncccc32)ccc1Br | 5.36 |
| Cc1c(C(=O)NCCN2CCOCC2)oc2c1-c1[nH]ncc1CC2 | 5.45 |
| O=C1c2ccccc2C(Nc2ccc3[nH]c(-c4cccnc4)nc3c2)N1Cc1ccco1 (stereo not drawn) | 5.01 |
| CN(C)c1ccc(NC(=O)C2CC=CCC2C(=O)O)cc1 (stereo not drawn) | 5.32 |
| COc1ccc(Nc2nc(Nc3ccc(OC)c(Cl)c3)c3cnn(C)c3n2)c(OC)c1 | 5.61 |
| COc1ccc(NC(=O)n2ncc3cc(Cl)ccc32)cc1OC | 5.01 |
| CCOC(=O)C1CCCN(c2cc(C(=O)O)c3cc(N)ccc3n2)C1 (stereo not drawn) | 5.26 |
| COc1c(C)cnc(CSc2nc3ncccc3o2)c1C | 5.39 |
| COC(=O)c1sc(=S)n(-c2ccc3c(c2)OCO3)c1N | 5.53 |
| Nc1ncccc1NC(=O)CCC(=O)O | 5.35 |
| Cc1cccc(NC(=O)Nc2cn(CC(C)C)c(=O)c3ccccc23)n1 | 5.59 |
| CC1=NC2c3c(oc(C(=O)NCC4CCCO4)c3C)CCC2S1 (stereo not drawn) | 5.39 |
| CNC(=O)c1oc2c(c1C)C1N=C(C)SC1CC2 (stereo not drawn) | 5.29 |
| COc1ccc(Nc2ncnc3sc(C(=O)O)cc23)c(OC)c1 | 5.87 |
| CC(C)Cn1cc(NC(=O)NC(c2cccs2)C(C)C)c2ccccc2c1=O (stereo not drawn) | 5.39 |
| Cn1cc(NC(=O)NCCN2CCOCC2)c2ccccc2c1=O | 5.17 |
| CC(C)Cn1cc(NC(=O)N(Cc2ccco2)CC2CCCO2)c2ccccc2c1=O (stereo not drawn) | 5.41 |
| Cn1cc(NC(=O)NCc2ccccn2)c2ccccc2c1=O | 5.32 |
| CC(C)Cn1cc(NC(=O)Nc2ccccc2)c2ccccc2c1=O | 5.62 |
| COc1ccc2c(c1)C=C(C(=O)Nc1ccc(OC)cc1OC)CO2 | 5.06 |
| CC(C)Cn1cc(NC(=O)NC(C)c2ccccc2)c2ccccc2c1=O (stereo not drawn) | 5.56 |

| SMILES | pIC50 |
| --- | --- |
| COc1cc(NC(=O)n2ncc3cc(Cl)ccc32)cc(OC)c1 | 4.93 |
| COc1ccc(OC)c(NC2c3ncccc3C(=O)N2c2ccccc2)c1 (stereo not drawn) | 4.81 |
| COc1ccc(NC(=O)N2CCn3c(C)ccc3C2C(C)C)cc1OC (stereo not drawn) | 5.57 |
| CCC(CC)C(=O)Nc1cc(F)c2nc(N3CCOCC3)ccc2c1 | 5.29 |
| Cc1cc(=O)c2c(=O)n(-c3nc4ccccc4s3)[nH]c2[nH]1 | 5.79 |
| Cc1c(C(=O)N2CCOCC2)oc2c1-c1nn(CC(=O)NC3CCCC(C)C3C)cc1CC2 (stereo not drawn) | 5.57 |
| COc1ccc(Cl)cc1N(C)C(=O)Nc1cn(C)c(=O)c2ccccc12 | 5.16 |
| COc1ccc(OC)c(NS(=O)(=O)c2cc(-c3cc(C)no3)ccc2C(C)C)c1 | 5.41 |
| CCOC(=O)c1nc(Nc2cc(OC)ccc2OC)c2ccccc2n1 | 4.85 |
| CC(=O)Oc1cc2c(C(=O)NCC3CCCO3)c(C)oc2c2ccccc12 (stereo not drawn) | 5.43 |
| CCCCCC(C)n1nc(O)c2c(C)cc(=O)[nH]c21 (stereo not drawn) | 5.15 |
| COc1ccc(Nc2nnc(-n3nc(C)cc3C)c3ccccc23)c(OC)c1 | 5.46 |
| CC(C)Cn1cc(NC(=O)N2CCN(c3cccc(Cl)c3)CC2)c2ccccc2c1=O | 5.23 |
| CCOC(=O)CSc1nc2ccc(N)cc2s1 | 6.15 |
| COc1cccc(C2CC(=O)N3CN(c4ccc(OC)cc4OC)CSC3=C2C#N)c1 (stereo not drawn) | 5.36 |
| CCOc1ccc2nc(NC(=O)CSc3nc4ncccc4o3)sc2c1 | 5.36 |
| COc1ccc(NCc2cccn2-c2nnc(N3CCCCC3)s2)cc1OC | 5.47 |
| CCNc1nc2[nH]c(=O)cc(O)c2s1 | 5.72 |
| CCC1c2ccc(C)n2CCN1C(=O)Nc1cc(OC)ccc1OC (stereo not drawn) | 5.20 |
| CC(=O)N1CCc2c(c(=O)[nH]c3onc(C)c23)C1 | 5.85 |
| CC(=O)Nc1ncc2c(n1)CC(c1ccco1)CC2=O (stereo not drawn) | 5.34 |
| O=C1CCCC2=C1C(c1cccs1)N(S(=O)(=O)c1ccc(F)cc1)c1ccccc1N2 (stereo not drawn) | 5.34 |

| SMILES | pIC50 |
| --- | --- |
| CCOC(=O)c1c(C)oc2c1c1c(c3ccccc32)OCN(CCCC(=O)O)C1 | 5.87 |
| COc1ccc(OC)c(Nc2c(-c3cc(C)c(C)cc3C)c(=O)c2=O)c1 | 5.00 |
| Cc1ccc(-c2cc(Nc3cccc4cccnc34)nc(C)n2)cc1 | 5.82 |
| O=C(Nc1ccc2c(c1)OCCO2)N1Cc2ccccc2Oc2ncccc21 | 5.51 |
| CCC(C)NC(=O)Nc1cn(CC(C)C)c(=O)c2ccccc12 (stereo not drawn) | 5.63 |
| Cc1cc(CNC(=O)Nc2ccc3c(c2)OCCO3)c(C)n1-c1ccc(Cl)cc1 | 5.07 |
| COc1cc(C2CC(=O)N3CN(C4CCCCC4)CSC3=C2C#N)ccc1O (stereo not drawn) | 5.36 |
| COc1cc(NC(=O)N2CCSc3ncccc32)cc(OC)c1 | 5.59 |
| O=C(CSc1nc2ncccc2o1)Nc1ccc(S(=O)(=O)Nc2ccc(F)cc2)cc1 | 5.56 |
| COCCN1CCn2c(nc3cc(NC(=O)NC4CCCCC4)ccc32)C1 | 5.29 |
| COc1ccc(OC)c(Nc2c(-c3ccc4c(c3)CCCC4)c(=O)c2=O)c1 | 5.62 |
| CCc1ccc(NS(=O)(=O)c2ccc3c4c2CC(=O)N4CC(C)S3)cc1 (stereo not drawn) | 5.67 |
| CC1CC(C)CN(CCCNC(=O)Nc2cn(C)c(=O)c3ccccc23)C1 (stereo not drawn) | 4.97 |
| CC(C)Cn1cc(NC(=O)NC2CCCC2)c2ccccc2c1=O | 5.65 |
| Cn1nc(C(=O)N2CC=C(c3ccccc3)CC2)c2c1-c1ccsc1CC2 | 6.07 |
| CC(C)Cn1cc(NC(=O)NCC2CCN(CCc3cccs3)CC2)c2ccccc2c1=O | 5.49 |
| COc1ccc(-c2nc3c4nsnc4ccc3n2C)cc1Br | 6.27 |
| O=C1CN(C(=O)COc2cccc3ccccc23)c2ccccc2N1 | 5.63 |
| CC(C)Cn1cc(NC(=O)NCCN2CCC(C)CC2)c2ccccc2c1=O | 5.42 |

Same assay, conditions: read-out: pIC50 (converted)

| SMILES | IC50 [µM] |
| --- | --- |
| O=C(O)CCc1nc(-c2ccccc2)c(-c2ccccc2)o1 [OXAPROZIN] | 1.95 |
